According to patent US20230158025A1 (UNIVERSITY OF UTAH RESEARCH FOUNDATION, priority 2020, published 2023):
pIC50: −log10 of the molar value. Like-named read-outs stand apart in the source and are kept apart here.

Experiments:
recombinant mouse GALK1 = recombinant mouse GALK1 (Mus musculus, UniProt Q9R0N0); test: mGALK1 biochemical activity assay (Kinase-Glo Plus, ATP depletion)
Method: In vitro hGALK1 activity assays were performed as previously described. Liu et al., Bioorg. […] The biochemical assay was performed by coupling the activity of recombinant human or mouse GALK1 to the Kinase-Glo Plus luminescent ATP detection kit, using ATP depletion as a measure of GALK1 turnover. […] One μL/well of GALK-galactose solution (5 nM GALK1, 100 μM galactose) in assay buffer was then added, yielding a final reaction volume of 4 μL/well. Following a 1-hour room temperature incubation, 4 μL of Kinase-Glo Plus detection reagent was added to provide an ATP-dependent luminescent readout (final assay volume: 8 μL/well).

recombinant human GALK1 = recombinant human GALK1 (Homo sapiens, UniProt P51570); test: hGALK1 biochemical activity assay (Kinase-Glo Plus, ATP depletion)
Method: In vitro hGALK1 activity assays were performed as previously described. Liu et al., Bioorg. Med. Chem. Lett. 25(3): 721-727 (2015), which is incorporated by reference herein for the specific teachings thereof. The biochemical assay was performed by coupling the activity of recombinant human or mouse GALK1 to the Kinase-Glo Plus luminescent ATP detection kit, using ATP depletion as a measure of GALK1 turnover. Specifically, three μL/well of ATP substrate solution (35 μM ATP) in assay buffer (20 mM HEPES pH 8.0, 5 mM MgCl2, 60 mM NaCl, 1 mM DTT, 0.01% BSA final concentration) was dispensed into 1536-well assay plates (Greiner, white solid-bottom medium-binding plates). Aliquots of compound (23 nL solubilized in DMSO) were transferred to the assay plates using a Kalypsys 1536-well pintool such that 11 concentrations with 1/3 dilutions ranging from 57.4 μM-0.97 nM are tested. One μL/well of GALK-galactose solution (5 nM GALK1, 100 μM galactose) in assay buffer was then added, yielding a final reaction volume of 4 μL/well. Following a 1-hour room temperature incubation, 4 μL of Kinase-Glo Plus detection reagent was added to provide an ATP-dependent luminescent readout (final assay volume: 8 μL/well).

[1] = rat microsomal stability (RLM)
[2] = aqueous kinetic solubility; conditions: aqueous kinetic solubility
[3] = recombinant mouse GALK1, Kinase-Glo Plus ATP depletion, read-out: mGALK
[4] = recombinant human GALK1, Kinase-Glo Plus ATP depletion, read-out: hGALK
[5] = Tables 2-15, 35 μM ATP, 100 μM galactose, 1 h, bracketed figure after some values is undefined and not reported, read-out: mGALK IC50
[6] = Tables 2-15, 35 μM ATP, 100 μM galactose, 1 h, bracketed figure after some values (e.g. −1.2) is undefined and not reported, read-out: hGALK IC50

Chain of recombinant human GALK1 (P51570 whole entry): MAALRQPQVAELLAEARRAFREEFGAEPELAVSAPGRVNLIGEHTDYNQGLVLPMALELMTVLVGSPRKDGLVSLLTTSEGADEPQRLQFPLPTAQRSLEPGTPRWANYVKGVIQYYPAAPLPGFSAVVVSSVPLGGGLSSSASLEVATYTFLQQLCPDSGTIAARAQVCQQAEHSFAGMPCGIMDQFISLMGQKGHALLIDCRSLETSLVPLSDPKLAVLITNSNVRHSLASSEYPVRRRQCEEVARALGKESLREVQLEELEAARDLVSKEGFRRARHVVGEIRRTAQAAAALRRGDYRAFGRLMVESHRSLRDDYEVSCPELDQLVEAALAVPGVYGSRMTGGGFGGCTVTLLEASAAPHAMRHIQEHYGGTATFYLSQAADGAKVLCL
Chain of recombinant mouse GALK1 (Q9R0N0 whole entry): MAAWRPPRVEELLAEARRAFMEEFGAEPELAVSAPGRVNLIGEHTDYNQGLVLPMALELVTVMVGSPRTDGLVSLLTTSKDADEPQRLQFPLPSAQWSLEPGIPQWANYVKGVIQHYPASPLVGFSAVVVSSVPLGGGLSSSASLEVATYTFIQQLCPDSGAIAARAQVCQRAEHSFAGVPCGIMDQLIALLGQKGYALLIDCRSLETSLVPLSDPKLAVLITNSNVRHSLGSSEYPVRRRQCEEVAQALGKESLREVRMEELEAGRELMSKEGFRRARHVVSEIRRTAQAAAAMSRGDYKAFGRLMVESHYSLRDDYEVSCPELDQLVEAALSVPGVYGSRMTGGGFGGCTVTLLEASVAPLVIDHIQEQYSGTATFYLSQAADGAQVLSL

| pIC50 (recombinant mouse GALK1; [3]) | pIC50 (recombinant human GALK1; [4]) | pIC50 (recombinant mouse GALK1; [5]) | pIC50 (recombinant human GALK1; [6]) | Structure (SMILES) | other results |
| --- | --- | --- | --- | --- | --- |
| 5.16 | 5.61 |  |  | CC1=C(C(=O)Nc2ccc(C(N)=O)cn2)C(c2ccccc2Cl)N=C(Nc2nc3ccc(F)cc3o2)N1 (stereo not drawn) [Compound 36, N-(5-carbamoylpyridin-2-yl)-4-(2-chlorophenyl)-2-((6-fluorobenzo[d]oxazol-2-yl)amino)-6-methyl-1,4-dihydropyrimidine-5-carboxamide] |  |
| 5.70 | 6.60 | 5.70 | 6.60 | COc1ccc([C@@H]2N=C(Nc3nc4ccc(F)cc4o3)NC(C)=C2C(=O)Nc2cc(C(=O)O)ccn2)c(Cl)c1 [Compound 53, (R)-2-(4-(2-chloro-4-methoxyphenyl)-2-((6-fluorobenzo[d]oxazol-2-yl)amino)-6-methyl-1,4-dihydropyrimidine-5-carboxamido)isonicotinic acid] |  |
| 4.71 | 5.31 | 4.71 | 5.32 | COc1ccc([C@H]2N=C(Nc3nc4ccc(F)cc4o3)NC(C)=C2C(=O)Nc2cc(C(=O)O)ccn2)c(Cl)c1 [Compound 54, (S)-2-(4-(2-chloro-4-methoxyphenyl)-2-((6-fluorobenzo[d]oxazol-2-yl)amino)-6-methyl-1,4-dihydropyrimidine-5-carboxamido)isonicotinic acid] |  |
| 4.71 | 5.06 |  |  | CC1=C(C(=O)NCc2cn(C)cn2)C(c2ccccc2Cl)N=C(Nc2nc3ccc(F)cc3o2)N1 (stereo not drawn) [Compound 34, 4-(2-chlorophenyl)-2-((6-fluorobenzo[d]oxazol-2-yl)amino)-6-methyl-N-((1-methyl-1H-imidazol-4-yl)methyl)-1,4-dihydropyrimidine-5-carboxamide] |  |
| 4.06 | 4.91 |  |  | COC(=O)c1ccnc(NC(=O)C2=C(C)NC(Nc3nc4ccc(F)cc4o3)=N[C@@H]2c2ccccc2Cl)c1 [Compound 32, (S)-methyl 2-(4-(2-chlorophenyl)-2-((6-fluorobenzo[d]oxazol-2-yl)amino)-6-methyl-1,4-dihydropyrimidine-5-carboxamido)isonicotinate] | Metab. Stabil. (m) ([1]; microsomal half-life): 24.28 m; Perm. (1 × 10^−6 cm/sec) (PAMPA permeability): <7.4 1 × 10^−6 cm/sec |
| 4.91 | 5.31 |  |  | CC1=C(C(=O)Nc2ccc(-c3nn[nH]n3)cn2)C(c2ccccc2Cl)N=C(Nc2nc3ccc(F)cc3o2)N1 (stereo not drawn) [Compound 35, N-(5-(2H-tetrazol-5-yl)pyridin-2-yl)-4-(2-chlorophenyl)-2-((6-fluorobenzo[d]oxazol-2-yl)amino)-6-methyl-1,4-dihydropyrimidine-5-carboxamide] |  |
| 5.36 | 5.51 |  |  | COC(=O)c1ccnc(NC(=O)C2=C(C)NC(Nc3nc4ccc(F)cc4o3)=N[C@H]2c2ccccc2Cl)c1 [Compound 31, (R)-methyl 2-(4-(2-chlorophenyl)-2-((6-fluorobenzo[d]oxazol-2-yl)amino)-6-methyl-1,4-dihydropyrimidine-5-carboxamido)isonicotinate] | Metab. Stabil. (m) ([1]; microsomal half-life): 30.91 m; Perm. (1 × 10^−6 cm/sec) (PAMPA permeability): <21.9 1 × 10^−6 cm/sec |
| 4.76 | 5.46 |  |  | CC1=C(C(=O)Nc2cc(C(=O)O)ccc2C)C(c2ccccc2Cl)N=C(Nc2nc3ccc(F)cc3o2)N1 (stereo not drawn) [Compound 28, 3-(4-(2-chlorophenyl)-2-((6-fluorobenzo[d]oxazol-2-yl)amino)-6-methyl-1,4-dihydropyrimidine-5-carboxamido)-4-methylbenzoic acid] |  |
| 5.76 | 6.07 | 5.76 | 7.10 | CC1=C(C(=O)Nc2cc(C(=O)O)ccn2)[C@H](c2ccccc2Cl)N=C(Nc2nc3cccc(N)c3o2)N1 [Compound 24, (R)-2-(2-((7-aminobenzo[d]oxazol-2-yl)amino)-4-(2-chlorophenyl)-6-methyl-1,4-dihydropyrimidine-5-carboxamido)isonicotinic acid] |  |

Further lines, the molecule ahead of its results:

| Structure (SMILES) | pIC50 (recombinant mouse GALK1; [3]) | pIC50 (recombinant human GALK1; [4]) | pIC50 (recombinant mouse GALK1; [5]) | pIC50 (recombinant human GALK1; [6]) | other results |
| --- | --- | --- | --- | --- | --- |
| CC1=C(C(=O)NCc2ccccc2O)C(c2ccccc2Cl)N=C(Nc2nc3ccccc3o2)N1 (stereo not drawn) [Compound 219, 2-(benzo[d]oxazol-2-ylamino)-4-(2-chlorophenyl)-N-(2-hydroxybenzyl)-6-methyl-1,4-dihydropyrimidine-5-carboxamide] | 4.96 |  | 4.96 | 5.16 | Metab. Stabil. (m) ([1]; microsomal stability half-life): 5.188 m; Perm. (1 × 10^−6 cm/sec) (PAMPA permeability; PAMPA): <19.3 1 × 10^−6 cm/sec |
| COC(=O)c1ccccc1NC(=O)C1=C(C)NC(Nc2nc3ccccc3o2)=NC1c1ccccc1Cl (stereo not drawn) [Compound 146] |  |  |  |  | mGALK IC50 (recombinant mouse GALK1; Tables 2-15, 35 μM ATP, 100 μM galactose, 1 h, bracketed figure after some values is undefined and not reported): inactive; mGALK (μM) (recombinant mouse GALK1; recombinant mouse GALK1, Kinase-Glo Plus ATP depletion): in- active; hGALK IC50 (recombinant human GALK1; Tables 2-15, 35 μM ATP, 100 μM galactose, 1 h, bracketed figure after some values (e.g. −1.2) is undefined and not reported): inactive; hGALK (μM) (recombinant human GALK1; recombinant human GALK1, Kinase-Glo Plus ATP depletion): in- active |
| CC1=C(C(=O)Nc2ccc(O)cc2)C(c2ccccc2Cl)N=C(Nc2nc3ccccc3o2)N1 (stereo not drawn) [Compound 162, 2-(benzo[d]oxazol-2-ylamino)-N-(4-hydroxyphenyl)-4-(2-chlorophenyl)-6-methyl-1,4-dihydropyrimidine-5-carboxamide] | 5.01 | 5.41 | 5.01 |  | Metab. Stabil. (m) ([1]; microsomal stability half-life): >30 m; Perm. (1 × 10^−6 cm/sec) (PAMPA permeability; PAMPA): <14.5 1 × 10^−6 cm/sec |
| CC1=C(C(=O)Nc2ccc(-n3cncn3)cc2)C(c2ccccc2Cl)N=C(Nc2nc3ccccc3o2)N1 (stereo not drawn) [Compound 191, N-(4-(1H-1,2,4-triazol-1-yl)phenyl)-2-(benzo[d]oxazol-2-ylamino)-4-(2-chlorophenyl)-6-methyl-1,4-dihydropyrimidine-5-carboxamide] | 4.46 | 4.61 | 4.46 | 4.61 |  |
| CC1=C(C(=O)Nc2nc(C(=O)O)cs2)C(c2ccccc2Cl)N=C(Nc2nc3ccccc3o2)N1 (stereo not drawn) [Compound 200, 2-(2-(benzo[d]oxazol-2-ylamino)-4-(2-chlorophenyl)-6-methyl-1,4-dihydropyrimidine-5-carboxamido)thiazole-4-carboxylic acid] | 4.71 | 5.01 | 4.71 | 5.01 |  |
| CC1=C(C(=O)Nc2ccccc2C(=O)O)C(c2ccccc2Cl)N=C(Nc2nc3ccccc3o2)N1 (stereo not drawn) [Compound 159, 2-(2-(benzo[d]oxazol-2-ylamino)-4-(2-chlorophenyl)-6-methyl-1,4-dihydropyrimidine-5-carboxamido)benzoic acid] |  | 4.46 |  |  |  |
| CCn1cc(CNC(=O)C2=C(C)NC(Nc3nc4cccc(N)c4o3)=NC2c2ccc(F)cc2Cl)cn1 (stereo not drawn) [Compound 118, 2-((7-aminobenzo[d]oxazol-2-yl)amino)-4-(2-chloro-4-fluorophenyl)-N-((1-ethyl-1H-pyrazol-4-yl)methyl)-6-methyl-1,4-dihydropyrimidine-5-carboxamide] | 5.11 | 6.12 |  |  | Metab. Stabil. (m) ([1]; microsomal stability half-life): 18.81 m; Perm. (1 × 10^−6 cm/sec) (PAMPA permeability; PAMPA): 188.9 1 × 10^−6 cm/sec |
| CC1=C(C(=O)Nc2cncc(C(=O)O)c2)C(c2ccccc2Cl)N=C(Nc2nc3ccccc3o2)N1 (stereo not drawn) [Compound 202, 5-(2-(benzo[d]oxazol-2-ylamino)-4-(2-chlorophenyl)-6-methyl-1,4-dihydropyrimidine-5-carboxamido)nicotinic acid] |  | 5.36 |  | 5.36 | Metab. Stabil. (m) ([1]; microsomal stability half-life): >30 m; Sol. [2]: 60.3 µg/mL |
| CC1=C(C(=O)Nc2ccc(-c3cn[nH]c3)cc2)C(c2ccccc2Cl)N=C(Nc2nc3ccccc3o2)N1 (stereo not drawn) [Compound 179, N-(4-(1H-pyrazol-4-yl)phenyl)-2-(benzo[d]oxazol-2-ylamino)-4-(2-chlorophenyl)-6-methyl-1,4-dihydropyrimidine-5-carboxamide] | 4.91 | 5.16 | 4.91 | 5.16 |  |
| CC1=C(C(=O)Nc2cccc(CCO)c2)C(c2ccccc2Cl)N=C(Nc2nc3ccccc3o2)N1 (stereo not drawn) [Compound 201, 2-(benzo[d]oxazol-2-ylamino)-4-(2-chlorophenyl)-N-(3-(2-hydroxyethyl)phenyl)-6-methyl-1,4-dihydropyrimidine-5-carboxamide] |  | 4.76 |  | 4.76 | Metab. Stabil. (m) ([1]; microsomal stability half-life): 26.59 m |
